{
  "source": "patent US7388007B2",
  "about": "“Gamma-lactams as beta-secretase inhibitors” (Bristol-Myers Squibb Company, priority 2004, dated 2008)",
  "note": "pIC50: −log10 of the molar value.",
  "data": [
    {"biological_target": "T1, BACE1 enzyme (Homo sapiens, UniProt P56817)", "T1 construct": "The HEK293-9B.A1 cell line, which overexpresses the BACE1 enzyme, was derived from HEK293 cells; endogenous in cells; washed 48,000 x g membrane pellet / cell homogenate", "T1 sequence (P56817 46-501)": "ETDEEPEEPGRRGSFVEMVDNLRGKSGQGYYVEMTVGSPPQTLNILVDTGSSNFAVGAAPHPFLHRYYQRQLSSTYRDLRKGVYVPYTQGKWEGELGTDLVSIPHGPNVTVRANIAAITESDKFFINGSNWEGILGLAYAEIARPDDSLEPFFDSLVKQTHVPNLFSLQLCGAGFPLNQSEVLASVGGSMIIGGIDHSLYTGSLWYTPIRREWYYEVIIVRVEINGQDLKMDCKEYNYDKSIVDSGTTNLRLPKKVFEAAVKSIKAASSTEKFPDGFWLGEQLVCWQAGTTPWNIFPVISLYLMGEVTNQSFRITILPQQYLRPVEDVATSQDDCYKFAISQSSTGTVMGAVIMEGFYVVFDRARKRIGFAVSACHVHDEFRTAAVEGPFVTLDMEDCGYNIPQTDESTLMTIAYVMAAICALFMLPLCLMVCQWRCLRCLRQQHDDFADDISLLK", "assay": "Radioligand displacement assay with a radiolabeled BACE inhibitor on HEK293-9B.A1 cell homogenate", "format": "binding", "conditions": "displacement of 1 nM tritiated radioligand, HEK293-9B.A1 homogenate, pH 5.0, 1.5 hr at 25° C.; read-out: Activity Rating (based on IC50 values)", "from_the_text": "There are a number of methods by which inhibitors of the BACE enzyme can be identified experimentally. The enzyme can be obtained from membrane samples from natural tissues or cultured cells or can be expressed recombinantly in a host cell by well known methods of molecular biology. The whole enzyme or a portion thereof can be expressed, for example, in bacterial, insect or mammalian cells to obtain a catalytically active enzyme species. The enzymatic activity and/or ligand binding capability of the enzyme can be assessed within these membrane samples, or the enzyme can be purified to varying extents. As an illustrative example, the nucleic acid sequence encoding the pro and catalytic domains of human BACE can be appended on the 5′ end with an untranslated and signal sequence from the gene for acetylcholinesterase, and on the 3′ end with a sequence encoding a poly-histidine tag. This cDNA can then be expressed in Drosophila melanogaster S2 cells in which the signal and pro sequences of the transcribed/translated protein are removed by cellular proteases and the catalytic domain, appended by a C-terminal poly-histidine tag, is secreted out into the cellular medium. The enzyme can then be purified from the culture medium by nickel affinity chromatography by methods well known to those trained in the art [Mallender, W. et al., (2001) “Characterization of recombinant, soluble beta-secretase from an insect cell expression system.” Mol. Pharmacol. 59: 619-626]. Similar strategies for expressing and purifying various forms of BACE in bacterial, mammalian and other cell types would be known to one skilled in the art. A preferred method for determining the potency of a test compound in binding to the BACE enzyme is by moitoring the displacement of a suitable radioligand.\nRadioligand displacement assays with a radiolabeled BACE inhibitor (WO 2004 013098, compound 3, where the methoxy group is substituted for C(^3H)3) were carried out using standard methods (Keen, M. (1999) in Receptor Binding Techniques (Walker, J. M. ed) p. 106 Humana Press, Totowa, N.J.). The HEK293-9B.A1 cell line, which overexpresses the BACE1 enzyme, was derived from HEK293 cells (Simmons, N. L. (1990) A cultured human renal epithelioid cell line responsive to vasoactive intestinal peptide. Exp. Physiol. 75:309-19.) by RAGE™ (Harrington, J. J. et al. (2001) Creation of genome-wide protein expression libraries using random activation of gene expression. Nat. Biotechnol. 19:440-5; U.S. Pat. Nos. 6,410,266 and 6,361,972). T225 flask cultures of HEK293-9B.A1 were grown to 80% confluency in DMEM supplemented with 2 mM L-glutamine, 10 μg/ml penecillin, 10 μg/ml streptomycin, 3 μg/ml puromycin, 100 nM methotrexate, and 10% fetal bovine serum (Invitrogen, Carlsbad, Calif.), harvested, and resuspended at 2×10^8 cells per 10 ml of lysis buffer consisting of 50 mM HEPES pH 7.0 containing a protease inhibitor cocktail of AEBSF 104 μM, aprotinin 80 nM, leupeptin 2 μM, bestatin 4 μM, pepstatin A 1.5 μM, and E-64 1.4 μM (0.1% of protease inhibitor cocktail P8340, Sigma-Aldrich, St. Louis, Mo.) at 4° C. The resuspended cells were homogenized using a Polytron (Brinkman, Westbury, N.Y.) at setting 6 for 10 sec., then centrifuged at 48,000×g for 10 min. The resulting pellet was washed by repeating the resuspension, homogenization and centrifugation steps. […]", "values": [
      {"smiles": "CCCO[C@H]1CN[C@@H]([C@@H](O)[C@H](Cc2cc(F)cc(F)c2)NC(=O)[C@H](CCc2ccccc2)N2CC[C@](NC(C)=O)([C@@H](C)CC)C2=O)C1", "note": "(stereo in doubt) [Example 2, (S)-2-((R)-3-acetamido-3-secbutyl-2-oxopyrrolidin-1-yl)-N-((1R,2S)-3-(3,5-difluorophenyl)-1-hydroxy-1-((2R,4R)-4-propoxypyrrolidin-2-yl)propan-2-yl)-4-phenylbutanamide]", "pIC50": "> 7.00"},
      {"smiles": "CCC(C)[C@@]1(NC(C)=O)CCN([C@@H](CCc2ccccc2)C(=O)N[C@@H](Cc2cc(F)cc(F)c2)[C@H](O)[C@H]2CCCCN2)C1=O", "note": "(stereo in doubt) [Example 8, (S)-2-((S)-3-acetamido-3-((R)-sec-butyl)-2-oxopyrrolidin-1-yl)-N-((1R,2S)-3-(3,5-difluorophenyl)-1-hydroxy-1-((R)-piperidin-2-yl)propan-2-yl)-4-phenylbutanamide]", "pIC50": "> 7.00"},
      {"smiles": "CCCOC1CN[C@@H]([C@@H](O)C(Cc2cc(F)cc(F)c2)NC(=O)[C@H](C)N2CC[C@H](CC(C)C)C2=O)C1", "note": "(some centres unmarked) [Example 7]", "pIC50": "6.00 to 7.00"},
      {"smiles": "CC[C@@H](C)[C@@]1(NC(C)=O)CCN([C@@H](CCc2ccccc2)C(=O)N[C@@H](Cc2cc(F)cc(F)c2)[C@H](O)[C@H]2C[C@H](O)CN2)C1=O", "note": "[Example 15, (S)-2-((S)-3-acetamido-3-((R)-sec-butyl)-2-oxopyrrolidin-1-yl)-N-((1R,2S)-3-(3,5-difluorophenyl)-1-hydroxy-1-((2R,4S)-4-hydroxypyrrolidin-2-yl)propan-2-yl)-4-phenylbutanamide]", "pIC50": "> 7.00"},
      {"smiles": "CCCS(=O)(=O)[C@H]1CN[C@@H]([C@@H](O)[C@H](Cc2ccccc2)NC(=O)[C@H](CCc2ccccc2)N2CC[C@](NC(C)=O)([C@H](C)CC)C2=O)C1", "note": "[Example 22, (S)-2-((S)-3-acetamido-3-((R)-sec-butyl)-2-oxopyrrolidin-1-yl)-N-((1R,2S)-1-hydroxy-3-phenyl-1-((2R,4R)-4-(propylsulfonyl)pyrrolidin-2-yl)propan-2-yl)-4-phenylbutanamide]", "pIC50": "> 7.00"}
    ]}
  ]
}
